The values below come from patent US20240083839A1, “COMPOSITIONS AND METHODS FOR TREATING NEURODEGENERATIVE DISEASES AND DISORDERS” (The Regents of the University of California, priority 2020, published 2024).

pEC50, pIC50: −log10 of the molar value. Values joined by “and” are separate entries in the source; they are usually repeats but may differ in a detail not shown here. Identical values can stand only once.

Series [1] relates to SirT1 levels in N2a-E4 cells. Description: SirT1 levels by AlphaLISA in ApoE4-transfected N2a cells. The series is classed as cell-based, murine. A digest of the protocol:
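SirT1 enhancers screened by AlphaLISA of SirT1 protein in murine N2a neuroblastoma cells stably transfected with ApoE4. E4-AD mice dosed orally at 40 mkd (20 mg/kg BID) for 56 days, then cognition tested by Novel Object Recognition.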
Background: Bead proximity is the source of the signal in Alpha formats.

Series [2] deals with SirT1 levels in SH-SY5Y cells. The experiment in a line: SirT1 in SH-SY5Y cells transiently transfected with ApoE4. The series is classed as cell-based, human.
For another series, the target named is PRMT1 (Homo sapiens, UniProt Q99873). Description: Cell-free PRMT enzyme activity assay, PRMT1. Type of series: biochemical. As to conditions: A03 at 5 μM. The source says: Due both the sequence homology and functional similarity of PRMT family members, in follow-up experiments PRMT 1, 4, and 8 inhibitors as well as assays for inhibition by those PRMTs were used. […] The mode & inhibition kinetics to be investigated in the renewal grant.
PRMT1, sequence (Q99873 whole entry, species assumed): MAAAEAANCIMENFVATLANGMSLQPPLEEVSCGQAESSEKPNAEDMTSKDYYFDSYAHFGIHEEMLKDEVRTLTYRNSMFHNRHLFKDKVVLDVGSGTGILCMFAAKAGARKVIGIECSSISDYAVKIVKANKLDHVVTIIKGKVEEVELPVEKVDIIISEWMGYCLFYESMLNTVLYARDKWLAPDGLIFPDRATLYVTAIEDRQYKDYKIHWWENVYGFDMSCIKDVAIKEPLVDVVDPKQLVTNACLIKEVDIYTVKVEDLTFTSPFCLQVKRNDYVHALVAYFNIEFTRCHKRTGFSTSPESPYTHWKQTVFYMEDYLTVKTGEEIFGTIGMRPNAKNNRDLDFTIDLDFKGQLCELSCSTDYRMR

The subject of series [3] is ApoE4 and RNA polymerase II binding to the SirT1 promoter. The experiment in a line: ChIP and real time PCR of SirT1 promoter binding in N2a-E4 cells. The series is classed as cell-based, mouse. As to conditions: 6 hour treatment (A03 50 μM), versus DMSO. The method, then:
Cells were then fixed with formaldehyde, lysed with SDS buffer, and sonicated using a temperature-controlled Epishear sonication platform at −20° C. to obtain DNA fragments between 200-1000 bp. An EZ-ChIP kit (EMD Millipore) was then used for chromatin immunoprecipitation using anti-ApoE4 mAb (Novus Biologicals) and anti-RNA Polymerase II mAb (Millipore) antibodies. After ChIP crosslinks were reversed and purified ChIP DNA was then analyzed by real time quantitative PCR using SYBR green master mix (Thermo) in a CFX Connect Real-Time PCR Detection System (Bio-Rad) using primers to amplify the ApoE4 binding site in the mouse SirT1 promoter: 5′[…]3′ and 5′[…]3′ (amplicon size of 125 bp). The Signals from each sample were normalized with signal of the input followed by the delta-delta-Ct method and fold change calculated with respect to the vehicle (DMSO).
Background: In qPCR the cycle at which signal appears reflects the starting amount.

For another series, the target named is T1, PRMT4 (Homo sapiens, UniProt Q86X55).
T1 sequence (Q86X55 1-608): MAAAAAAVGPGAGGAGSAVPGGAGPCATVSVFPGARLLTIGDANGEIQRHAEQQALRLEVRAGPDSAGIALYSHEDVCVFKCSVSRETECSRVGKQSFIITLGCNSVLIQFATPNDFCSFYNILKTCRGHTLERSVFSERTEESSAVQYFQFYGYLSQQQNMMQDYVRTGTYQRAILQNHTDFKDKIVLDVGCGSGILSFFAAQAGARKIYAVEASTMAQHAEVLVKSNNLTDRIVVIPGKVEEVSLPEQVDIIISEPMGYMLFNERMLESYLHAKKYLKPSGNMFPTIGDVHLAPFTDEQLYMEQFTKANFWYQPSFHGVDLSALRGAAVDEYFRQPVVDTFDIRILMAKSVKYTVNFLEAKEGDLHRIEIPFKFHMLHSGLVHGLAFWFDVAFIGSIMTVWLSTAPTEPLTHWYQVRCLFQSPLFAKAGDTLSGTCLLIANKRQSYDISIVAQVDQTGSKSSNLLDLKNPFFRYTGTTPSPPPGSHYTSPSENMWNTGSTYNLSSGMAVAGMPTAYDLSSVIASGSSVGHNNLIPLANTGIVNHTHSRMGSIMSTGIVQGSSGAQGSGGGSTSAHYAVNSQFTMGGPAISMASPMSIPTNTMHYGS
Description: Cell-free PRMT enzyme activity assay, PRMT4. As to conditions: A03 at 5 μM. The series is classed as biochemical. The source says:
(§1) Due both the sequence homology and functional similarity of PRMT family members, in follow-up experiments PRMT 1, 4, and 8 inhibitors as well as assays for inhibition by those PRMTs were used. […] This profile may be due to its binding to an allosteric site on the PRMT8 enzyme and needs further kinetic analysis. […] The mode & inhibition kinetics to be investigated in the renewal grant.

A further series concerns SirT1 mRNA. Description: SirT1 mRNA level in N2a-E4 cells. The series is classed as cell-based, mouse. The following applies: 10 hour time point.
In series [4] the test system is PRMT8 protein levels in E4-N2a cells. Description: Immunoblot of PRMT8 protein levels in E4-N2a cells. The series is classed as cell-based, murine. The following applies: 10 μM.
From the text: as §1

For the next series, the target named is PRMT8 (Homo sapiens, UniProt Q9NR22). Description: Cell-free PRMT enzyme activity assay, PRMT8. The series is classed as biochemical. The following applies: for PRMT8 inhibition: A03 at 5 μM.
PRMT8, sequence (Q9NR22 whole entry, species assumed): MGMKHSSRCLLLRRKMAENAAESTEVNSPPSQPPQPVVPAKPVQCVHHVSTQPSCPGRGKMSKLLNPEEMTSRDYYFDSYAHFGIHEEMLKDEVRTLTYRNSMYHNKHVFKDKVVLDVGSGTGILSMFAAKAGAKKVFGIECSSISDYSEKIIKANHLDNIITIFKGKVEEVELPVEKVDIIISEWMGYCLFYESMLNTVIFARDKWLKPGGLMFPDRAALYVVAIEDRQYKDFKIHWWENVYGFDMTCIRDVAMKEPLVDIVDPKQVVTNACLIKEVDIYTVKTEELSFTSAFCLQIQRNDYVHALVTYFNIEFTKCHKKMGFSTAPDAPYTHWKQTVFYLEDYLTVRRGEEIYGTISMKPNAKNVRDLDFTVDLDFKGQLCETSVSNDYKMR
From the text: as §1
Testing of additional A03 analogs are ongoing. For affinity purification, DDL215 that was used through clicking to beads. […] An initial correlation between cell-free PRMT8 inhibition and neuronal SirT1 enhancement (in cells) at 5 μM was seen (FIG. 10B).

The next series has as its system E4-AD mice. Description: Oral treatment of ApoE4-expressing AD model mice (NOR, brain SirT1). Type of series: in vivo, mouse. The following applies: ApoE4:5×FAD-TR transgenic mice. As to the method:
Prompted by the emerging importance of the associations between ApoE4 and the expression/protein levels of SirT1, high-throughput screening (HTS) of the UCLA compound library was performed using AlphaLISA to detect SirT1 levels in murine neuroblastoma cells stably transfected with ApoE4 (E4-N2a) to identify SirT1 enhancers. […] In the in vivo study, mice were treated orally at 40 mkd (20 mg/kg BID) for 56 days and underwent assessment of cognition in the Novel Object Recognition (NOR) testing paradigm.

With `CC(N)C(=O)OC(C)(C)Cc1ccc(Cl)cc1` (stereo not drawn) [A03, alaproclate], in series [1], the “SirT1 SOμM” value is on record as “C (C = 100% increase versus control)” and the “SirT1 SμM” value is on record as “A (A >20%)”. Further, in [1] (Mus musculus, E4-N2a cells, AlphaLISA, read-out: SirT1 increase EC50), the negative-log EC50 (pEC50) (usually the negative decadic logarithm of the EC50, by convention in mol/L) is about 5.64. Further, in series [1] (N2a-E4 cells), the SirT1 increase result was “increased SirT1 in a dose dependent fashion”. The SirT1 increase entry in [2] is reported as “SirT1 increases similar to those seen in the E4-N2a cells”. Further, the PRMT1 inhibition entry on PRMT1 is listed as “not PRMT1 or 4”. For the same molecule, in series [3], the “ApoE4 binding to the SirT1 promoter” value is “pronounced decrease” and the “RNA polymerase binding to the SirT1 promoter” value is reported as “increased binding”. Besides, the PRMT4 inhibition entry at PRMT4 was “not PRMT1 or 4”. The PAMPA in “PAMPA” was 3.9 and 4.04. Also, the “SirT1 mRNA level higher than DMSO control” value with SirT1 mRNA was determined as 12%. Moreover, the PRMT8 protein levels entry in [4] was “does not alter PRMT8 protein levels”. Besides, the “PRMT8 inhibition, ranking” value on PRMT8 (cell-free assay, 0.25 μM) is on record as “greatest inhibition”. At PRMT8 (cell-free assay), the PRMT8 inhibition result is listed as “inhibit PRMT8”. Moreover, at PRMT8 (cell-free assay, read-out: PRMT8 inhibition IC50), the pIC50 (in general, the IC50 on a negative log10 scale, so that one unit is a factor of ten) was about 6.90. On PRMT8 (hormetic profile, plateau up to 10 μM), the “dose at maximum of PRMT8 inhibition dose response” value came to 0.25 µM.

On to `CC(N)C(=O)OC(C)(C)Cc1ccncc1` (stereo not drawn) [MP48], for which, in series [3], the “ApoE4 binding to the SirT1 promoter” value is given as “decreased ApoE4” and the “RNA polymerase binding to the SirT1 promoter” value was “increased RNA polymerase binding”. Further, in the series with E4-AD mice, the “SirT1 mRNA levels in the brain” value is on record as “increase SirT1 mRNA levels”.

With `CC(C)Oc1ccc(-c2c[nH]cc2CN(C)CCN)cc1` [MS23], at PRMT4, the PRMT4 inhibition result is “inhibits all 3 enzymes”. The PRMT8 inhibition entry on PRMT8 (cell-free assay) was “inhibits all 3 enzymes”.
